Tests used:
CDK2/CycE = target: T1, CDK2/CycE (Homo sapiens, UniProt P24941); test: CDK2/CycE kinase assay (TR-FRET, 2 mM ATP); format: biochemical; details: 2 mM ATP (high ATP); median; read-out: CDK2/CyclinE, 2 mM ATP (high ATP), IC50 (median)
T1 construct: purchased ProQinase GmbH (Freiburg, Germany); host or cells: insect cells (Sf9)
Method in brief: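 Biotin-peptide phosphorylation (0.75 µM substrate, 2 mM ATP final, 25 min, 22 °C) by Sf9-expressed GST-CDK2/GST-CycE, after a 15-min compound pre-binding step. Inhibition scaled between enzyme-free (100%) and uninhibited (0%) wells.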

CDK9/CycT1 = target: T2, CDK9/CycT1 (Homo sapiens, UniProt P50750); test: CDK9/CycT1 high ATP kinase assay (TR-FRET, 2 mM ATP); format: biochemical; details: 2 mM ATP (high ATP); median; read-out: CDK9/CyclinT1, 2 mM ATP (high ATP), IC50 (median)
T2 construct: Recombinant full-length His-tagged human CDK9 and CycT1; purchased Life Technologies PV4131; host or cells: insect cells
T2 sequence (P50750 whole entry): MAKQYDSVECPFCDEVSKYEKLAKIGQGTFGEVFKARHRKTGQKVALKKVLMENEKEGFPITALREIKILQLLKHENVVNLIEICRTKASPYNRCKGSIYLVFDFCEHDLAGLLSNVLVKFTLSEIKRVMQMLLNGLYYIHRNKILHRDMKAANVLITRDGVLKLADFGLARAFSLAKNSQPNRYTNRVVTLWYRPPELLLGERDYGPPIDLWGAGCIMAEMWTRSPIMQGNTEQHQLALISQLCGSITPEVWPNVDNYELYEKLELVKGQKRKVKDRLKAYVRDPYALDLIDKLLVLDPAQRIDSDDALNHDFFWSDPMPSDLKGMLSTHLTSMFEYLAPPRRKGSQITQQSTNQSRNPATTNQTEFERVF
T2 sequence (O60563 whole entry partner): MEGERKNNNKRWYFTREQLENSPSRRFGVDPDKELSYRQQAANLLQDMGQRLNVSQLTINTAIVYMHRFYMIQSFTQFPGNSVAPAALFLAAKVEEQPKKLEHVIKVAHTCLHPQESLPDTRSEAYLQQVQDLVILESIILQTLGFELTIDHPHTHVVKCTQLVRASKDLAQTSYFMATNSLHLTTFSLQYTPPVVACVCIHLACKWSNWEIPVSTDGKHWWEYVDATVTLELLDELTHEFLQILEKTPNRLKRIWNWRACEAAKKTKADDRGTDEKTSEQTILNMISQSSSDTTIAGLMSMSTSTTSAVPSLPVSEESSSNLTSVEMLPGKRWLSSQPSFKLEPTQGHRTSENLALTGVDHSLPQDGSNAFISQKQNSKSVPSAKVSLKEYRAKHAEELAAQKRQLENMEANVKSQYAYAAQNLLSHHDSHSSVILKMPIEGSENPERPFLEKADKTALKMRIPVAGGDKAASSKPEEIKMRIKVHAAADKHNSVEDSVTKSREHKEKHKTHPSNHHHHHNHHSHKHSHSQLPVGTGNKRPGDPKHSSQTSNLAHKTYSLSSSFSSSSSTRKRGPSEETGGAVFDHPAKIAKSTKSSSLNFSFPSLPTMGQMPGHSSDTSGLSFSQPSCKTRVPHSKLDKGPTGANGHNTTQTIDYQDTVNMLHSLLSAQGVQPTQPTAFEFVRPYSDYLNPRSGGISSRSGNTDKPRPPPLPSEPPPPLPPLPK
Method in brief: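 Full-length His-tagged human CDK9/CycT1 (insect cell, ~0.5 μg/mL) preincubated 15 min at 22 °C with compound in Tris pH 8.0, MgCl2, DTT buffer before reaction with biotinylated peptide substrate at high ATP (2 mM).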

Compound | IC50 (CDK2/CycE) | IC50 (CDK9/CycT1)
Brc1cnn2c(NCc3nc4ccccc4[nH]3)nc(N3CCN4CCC[C@@H]4C3)nc12 [Example 149, N-[(1H-benzimidazol-2-yl)methyl]-8-bromo-2-[(8aR)-hexahydropyrrolo[1,2-a]pyrazin-2 (1 H)-yl]pyrazolo[1,5-a][1,3,5]triazin-4-amine] | 6.38 µM | > 20 µM
C[C@@H]1CN(c2nc(NCc3nc4c(F)cccc4[nH]3)n3ncc(Br)c3n2)C[C@H](C)O1 [Example 109, 8-bromo-2-[(2R,6S)-2,6-dimethylmorpholin-4-yl]-N-[(4-fluoro-1H-benzimidazol-2-yl)methyl]pyrazolo[1,5-a][1,3,5]triazin-4-amine] | 4.01 µM | 1.79 µM
Brc1cnn2c(NCc3nc4ccccc4[nH]3)nc(N3CCN4CCC[C@H]4C3)nc12 [Example 148, N-[(1H-benzimidazol-2-yl)methyl]-8-bromo-2-[(8aS)-hexahydropyrrolo[1,2-a]pyrazin-2 (1 H)-yl]pyrazolo[1,5-a][1,3,5]triazin-4-amine] | 12.6 µM | > 20 µM
N=S1(=O)CCN(c2nc(NCc3nc4ccccc4[nH]3)n3ncc(Br)c3n2)CC1 [Example 145, 4-(4-{[(1H-benzimidazol-2-yl)methyl]amino}-8-bromopyrazolo[1,5-a][1,3,5]triazin-2-yl)-1-imino-1lambda^6-thiomorpholin-1-one] | 6.14 µM | > 20 µM
CC(C)c1cnn2c(NCc3nc4ccccc4[nH]3)nc(N3CCCOCC3)nc12 [Example 8, N-[(1H-benzimidazol-2-yl)methyl]-2-(1,4-oxazepan-4-yl)-8-(propan-2-yl)pyrazolo[1,5-a][1,3,5]triazin-4-amine] | 11.1 µM | > 20 µM
Fc1cc(F)cc(-c2nnc(CNc3nc(N4CCOCC4)nc4c(Br)cnn34)[nH]2)c1 [Example 105, 8-bromo-N-{[5-(3,5-difluorophenyl)-4H-1,2,4-triazol-3-yl]methyl}-2-(morpholin-4-yl)pyrazolo[1,5-a][1,3,5]triazin-4-amine] | 0.826 µM | 0.613 µM
CN1CCN(c2nc(NCc3nnc(-c4ccccc4)[nH]3)n3ncc(Br)c3n2)CC1=O [Example 121, 4-(8-bromo-4-{[(5-phenyl-4H-1,2,4-triazol-3-yl)methyl]amino}pyrazolo[1,5-a][1,3,5]triazin-2-yl)-1-methylpiperazin-2-one] | 2.2 µM | 10.1 µM
CC(C)c1cnn2c(NCc3nc4ccccc4[nH]3)nc(N3CCOC[C@H]3C)nc12 [Example 7, N-[(1H-benzimidazol-2-yl)methyl]-2-[(3R)-3-methylmorpholin-4-yl]-8-(propan-2-yl)pyrazolo[1,5-a][1,3,5]triazin-4-amine] | 6.57 µM | > 20 µM
Cc1ccc2[nH]c(CNc3nc(N4CCN(C)CC4)nc4c(Br)cnn34)nc2c1 [Example 158, 8-bromo-N-[(5-methyl-1H-benzimidazol-2-yl)methyl]-2-(4-methylpiperazin-1-yl)pyrazolo[1,5-a][1,3,5]triazin-4-amine] | 5.3 µM | > 20 µM
Clc1ccccc1-c1cnc(CNc2nc(N3CCOCC3)nc3c(Br)cnn23)[nH]1 [Example 96, 8-bromo-N-{[5-(2-chlorophenyl)-1H-imidazol-2-yl]methyl}-2-(morpholin-4-yl)pyrazolo[1,5-a][1,3,5]triazin-4-amine] | 1.78 µM | 9.3 µM
CCC1COCCN1c1nc(NCc2nc3ccccc3[nH]2)n2ncc(Br)c2n1 (stereo not drawn) [Example 116, N-(1H-benzimidazol-2-ylmethyl)-8-bromo-2-(3-ethylmorpholin-4-yl)pyrazolo[1,5-a][1,3,5]triazin-4-amine] | 3.01 µM | > 20 µM
Fc1ccc2[nH]c(CNc3nc(N4CCOCC4)nc4c(Br)cnn34)nc2c1 [Example 101, 8-bromo-N-[(5-fluoro-1H-benzimidazol-2-yl)methyl]-2-(morpholin-4-yl)pyrazolo[1,5-a][1,3,5]triazin-4-amine] | 3.88 µM | > 20 µM
C[C@@H]1CN(c2nc(NCc3nc4ccccc4[nH]3)n3ncc(Br)c3n2)C[C@H](C)N1 [Example 142, N-(1H-benzimidazol-2-ylmethyl)-8-bromo-2-[(3R,5S)-3,5-dimethylpiperazin-1-yl]pyrazolo[1,5-a][1,3,5]triazin-4-amine] | > 19.8 µM | > 20 µM
FC(F)(F)CN1CCN(c2nc(NCc3nc4ccccc4[nH]3)n3ncc(Br)c3n2)CC1 [Example 139, N-[(1H-benzimidazol-2-yl)methyl]-8-bromo-2-[4-(2,2,2-trifluoroethyl)piperazin-1-yl]pyrazolo[1,5-a][1,3,5]triazin-4-amine] | 14.7 µM | > 20 µM
Brc1cnn2c(NCc3nc4ccccc4[nH]3)nc(N3CCOCC3C3CC3)nc12 (stereo not drawn) [Example 117, N-(1H-benzimidazol-2-ylmethyl)-8-bromo-2-(3-cyclopropylmorpholin-4-yl)pyrazolo[1,5-a][1,3,5]triazin-4-amine] | 4.66 µM | > 20 µM
C[C@H]1CN(c2nc(NCc3nnc(-c4ccccc4)[nH]3)n3ncc(Br)c3n2)CCN1C.O=CO [Example 122, 8-bromo-2-[(3S)-3,4-dimethylpiperazin-1-yl]-N-[(5-phenyl-4H-1,2,4-triazol-3-yl)methyl]pyrazolo[1,5-a][1,3,5]triazin-4-amine formate] | 6.72 µM | 4.26 µM
CN1CCN(c2nc(NCc3nc4ccccc4[nH]3)n3ncc(Br)c3n2)CC1=O [Example 131, 4-(4-{[(1H-benzimidazol-2-yl)methyl]amino}-8-bromopyrazolo[1,5-a][1,3,5]triazin-2-yl)-1-methylpiperazin-2-one] | > 20 µM | > 20 µM
c1ccc2[nH]c(CNc3nc(N4CCOCC4)nc4c(-c5ccncc5)cnn34)nc2c1 [Example 111, N-[(1H-benzimidazol-2-yl)methyl]-2-(morpholin-4-yl)-8-(pyridin-4-yl)pyrazolo[1,5-a][1,3,5]triazin-4-amine hydrogen chloride (1/1)] | > 20 µM | > 1.63 µM
CN1CCN(c2nc(NCc3nc4cc(Cl)ccc4[nH]3)n3ncc(Br)c3n2)CC1 [Example 163, 8-bromo-N-[(5-chloro-1H-benzimidazol-2-yl)methyl]-2-(4-methylpiperazin-1-yl)pyrazolo[1,5-a][1,3,5]triazin-4-amine] | 10.8 µM | > 20 µM
Cc1ccc2[nH]c(CNc3nc(N4CCOCC4)nc4c(Br)cnn34)nc2c1 [Example 157, 8-bromo-N-[(5-methyl-1H-benzimidazol-2-yl)methyl]-2-(morpholin-4-yl)pyrazolo[1,5-a][1,3,5]triazin-4-amine] | 3.02 µM | > 20 µM
CN1CCN(c2nc(NCc3nc4ccccc4[nH]3)n3ncc(Br)c3n2)C(CO)C1 (stereo not drawn) [Example 155, [1-[4-(1H-benzimidazol-2-ylmethylamino)-8-bromo-pyrazolo[1,5-a][1,3,5]triazin-2-yl]-4-methyl-piperazin-2-yl]methanol] | 9.28 µM | > 20 µM
C[C@@H]1CN(c2nc(NCc3nc4ccccc4[nH]3)n3ncc(Br)c3n2)CCN1C [Example 135, N-[(1H-benzimidazol-2-yl)methyl]-8-bromo-2-[(3R)-3,4-dimethylpiperazin-1-yl]pyrazolo[1,5-a][1,3,5]triazin-4-amine] | 7.75 µM | > 20 µM
CN1CCN(c2nc(NCc3nc4c(F)c(F)ccc4[nH]3)n3ncc(Br)c3n2)CC1 [Example 133, 8-bromo-N-[(4,5-difluoro-1H-benzimidazol-2-yl)methyl]-2-(4-methylpiperazin-1-yl)pyrazolo[1,5-a][1,3,5]triazin-4-amine] | 15.1 µM | > 20 µM
CN1CCN(c2nc(NCc3nc4cc(F)ccc4[nH]3)n3ncc(C4CC4)c3n2)CC1 [Example 164, 8-cyclopropyl-N-[(5-fluoro-1H-benzimidazol-2-yl)methyl]-2-(4-methylpiperazin-1-yl)pyrazolo[1,5-a][1,3,5]triazin-4-amine] | > 20 µM | > 20 µM
